Measurements: patent publication US20220177477A1 (Central China Normal University, priority 2019, published 2022)

Tests used:
[1] = target: T1, TRKB (Homo sapiens, UniProt Q16620); assay: In vitro biochemical HTRF KinEASE kinase inhibition, TRKB; details: wild-type kinase, final ATP 2.56 μmol/L
T1 construct: purchased Carna Biosciences 08-187
Experimental: The material and the method are as follows: wild-type kinases such as TRKA, TRKB and TRKC, and mutant kinases such as TRKA-G595R, TRKA-G667C, TRKA-F589L, TRKC-G623R and TRKC-G696A, and are derived from Carna Biosciences 08-186, 08-187, 08-197; HTRF KinEASE TKkit (Cisbio 62TKO PEC); 384 well plates (Greiner corporation); ATP (Life technologies PV 3227), MgCl2 (sigma); PHERAstar FS Multifunctional microplate reader (BMG Co.); low speed centrifuge (StaiteXiangyi corporation); incubator (Binder company).
Preparing a compound working solution: the dispensed compounds were removed from the freezer prior to testing and diluted to 100× concentration with pure DMSO; then the compound was diluted to the desired concentration of 4× with deionized water;
Preparation of 1.33× enzyme buffer (enzyme buffer): 5× enzyme buffer (from HTRF kit) was diluted to 1.33× with deionized water and the corresponding ingredients were added at a final concentration of 1.33×: 1.33 mmol/L Dithiothreitol (DTT), 1.33 mmol/L MnCl2, 6.65 mmol/L MgCl2 and 39.9 nmol/L SEB;
Preparation of a kinase working solution: TRKA, TRKB and TRKC were diluted with 1.33× enzyme buffer to the required concentrations of 2× of 0.404 ng/μL, 0.304 ng/μL and 0.236 ng/μL, respectively;
Preparing a substrate working solution: a mixture of TK Substrate Blr diluted to the desired final concentration of 4× (from HTRF kit) and ATP (10 mM) with 1.33× enzyme buffer; the final ATP concentrations for TRKA, TRKB, and TRKC were: 3.727 μmol/L, 2.56 μmol/L and 2.526 μmol/L. The TK Substrate-biotin (from HTRF KinEASE TKkit) final concentrations were all: 0.2 μmol/L.
Preparing a detection working solution: 16.67 μmol/L of Streptavidin-XL665 (Streptavidin-XL 665) were diluted to the desired final concentration of 4× with HTRF test buffer and then mixed with an equal volume of Antibody-europium Cryptate (Antibody-Cryptate) (both from HTRF kits).
An enzyme reaction step: add 4 μL of kinase working solution to each well of a low volume 384 microwell plate along with 4 μL of 1.33× enzyme buffer as a Negative control (Negative); add 2 μl of compound working solution to the wells, while adding 2 μl of […] aqueous solution as a zero compound concentration control (i.e., Positive control, Positive); incubating at 25° C. for 5 min; add 2 μL of substrate working solution to the wells to start the enzymatic reaction, shake the reaction for 30 min at 37° C.
HTRF reagent detection step: adding […] to the hole to terminate the reaction; reacting for 1 h at 25° C.;
Reading of HTRF signal: the PHERAstar FS reading is adopted to detect signals, and the corresponding setting of the instrument is as follows:
For the raw data read out per well, the ratio=665 nm/620 nm;
Calculation of inhibition rate:
Calculation of IC50 values: with the logarithm of the compound concentration as abscissa and the inhibition as ordinate, a non-linear curve was fitted in GraphPad Prism 5: log (inhibitor) vs. response—Variable slope, and calculating the concentration of the compound to be detected, namely IC50, when the enzyme activity inhibition rate is 50%.

[2] = target: T2, TRKA (Homo sapiens, UniProt P04629); assay: In vitro biochemical HTRF KinEASE kinase inhibition, TRKA; details: wild-type kinase, final ATP 3.727 μmol/L; read-out: TRKA IC50
T2 construct: purchased Carna Biosciences 08-186
T2 sequence (P04629 33-796): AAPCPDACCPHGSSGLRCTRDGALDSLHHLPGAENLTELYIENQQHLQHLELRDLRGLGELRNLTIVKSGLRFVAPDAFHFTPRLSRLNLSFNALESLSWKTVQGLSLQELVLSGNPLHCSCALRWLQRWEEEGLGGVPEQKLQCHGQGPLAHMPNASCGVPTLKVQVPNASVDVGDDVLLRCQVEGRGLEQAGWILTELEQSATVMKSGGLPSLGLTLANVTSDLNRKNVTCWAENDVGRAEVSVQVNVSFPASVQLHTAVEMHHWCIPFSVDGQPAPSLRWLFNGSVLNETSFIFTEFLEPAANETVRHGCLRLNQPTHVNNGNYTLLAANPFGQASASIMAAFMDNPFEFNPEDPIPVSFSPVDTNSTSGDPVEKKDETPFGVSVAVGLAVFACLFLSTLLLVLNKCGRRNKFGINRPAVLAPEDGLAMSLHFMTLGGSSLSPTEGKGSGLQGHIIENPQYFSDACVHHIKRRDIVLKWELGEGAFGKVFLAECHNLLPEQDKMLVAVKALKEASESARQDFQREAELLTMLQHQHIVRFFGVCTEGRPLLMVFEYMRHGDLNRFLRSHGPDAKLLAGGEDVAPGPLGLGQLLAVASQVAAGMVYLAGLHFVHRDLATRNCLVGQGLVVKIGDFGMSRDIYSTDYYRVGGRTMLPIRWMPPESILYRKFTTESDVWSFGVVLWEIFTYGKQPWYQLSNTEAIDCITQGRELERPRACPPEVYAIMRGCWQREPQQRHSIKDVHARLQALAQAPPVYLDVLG

[3] = target: T3, TRKC-G696A (Homo sapiens, UniProt Q16288, G696A); assay: TRK kinase mutant inhibition (HTRF), TRKC-G696A; format: biochemical
T3 construct: purchased Carna Biosciences
T3 sequence (Q16288 32-839 G696A): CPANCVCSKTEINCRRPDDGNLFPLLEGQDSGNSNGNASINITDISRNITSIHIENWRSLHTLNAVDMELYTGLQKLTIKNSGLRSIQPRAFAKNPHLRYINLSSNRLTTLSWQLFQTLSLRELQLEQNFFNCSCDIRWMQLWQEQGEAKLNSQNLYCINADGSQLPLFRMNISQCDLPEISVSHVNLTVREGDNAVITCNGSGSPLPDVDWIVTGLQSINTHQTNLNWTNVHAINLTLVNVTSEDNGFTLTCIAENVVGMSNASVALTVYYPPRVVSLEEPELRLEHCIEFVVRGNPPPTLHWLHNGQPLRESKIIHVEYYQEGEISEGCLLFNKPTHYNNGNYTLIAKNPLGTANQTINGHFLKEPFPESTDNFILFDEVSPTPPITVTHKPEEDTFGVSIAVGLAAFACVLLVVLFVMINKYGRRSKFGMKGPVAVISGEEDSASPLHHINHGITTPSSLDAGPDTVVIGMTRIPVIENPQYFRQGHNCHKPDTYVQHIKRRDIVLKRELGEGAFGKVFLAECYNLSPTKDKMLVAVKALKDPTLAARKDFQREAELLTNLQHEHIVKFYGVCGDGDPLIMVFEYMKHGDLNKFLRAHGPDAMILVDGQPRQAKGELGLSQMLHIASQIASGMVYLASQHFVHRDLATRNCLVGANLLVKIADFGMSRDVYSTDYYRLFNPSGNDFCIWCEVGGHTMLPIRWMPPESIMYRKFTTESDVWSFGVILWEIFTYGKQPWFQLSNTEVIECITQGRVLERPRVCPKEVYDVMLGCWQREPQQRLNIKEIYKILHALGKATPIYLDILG

[4] = Drug metabolism study in rats, intravenous administration; details: rat, plasma, iv, 1 mg/kg
[5] = target: T4, TRKA-G667C (Homo sapiens, UniProt P04629, G667C); assay: TRK kinase mutant inhibition (HTRF), TRKA-G667C; format: biochemical
T4 construct: purchased Carna Biosciences
T4 sequence (P04629 33-796 G667C): as the sequence (P04629 33-796) above, with G635C counted along it

[6] = target: T5, TRKA-F589L (Homo sapiens, UniProt P04629, F589L); assay: TRK kinase mutant inhibition (HTRF), TRKA-F589L; format: biochemical
T5 construct: purchased Carna Biosciences
T5 sequence (P04629 33-796 F589L): as the sequence (P04629 33-796) above, with F557L counted along it

[7] = target: T6, TRKA-G595R (Homo sapiens, UniProt P04629, G595R); assay: TRK kinase mutant inhibition (HTRF), TRKA-G595R; format: biochemical
T6 construct: purchased Carna Biosciences
T6 sequence (P04629 33-796 G595R): as the sequence (P04629 33-796) above, with G563R counted along it

[8] = target: T7, TRKC-G623R (Homo sapiens, UniProt Q16288, G623R); assay: TRK kinase mutant inhibition (HTRF), TRKC-G623R; format: biochemical
T7 construct: purchased Carna Biosciences
T7 sequence (Q16288 32-839 G623R): as the sequence (Q16288 32-839 G696A) above, with G592R, A665G counted along it

[9] = target: T8, TRKC (Homo sapiens, UniProt Q16288); assay: In vitro biochemical HTRF KinEASE kinase inhibition, TRKC; details: wild-type kinase, final ATP 2.526 μmol/L
T8 construct: purchased Carna Biosciences 08-197
T8 sequence (Q16288 32-825 isoform Q16288-3 limits assumed): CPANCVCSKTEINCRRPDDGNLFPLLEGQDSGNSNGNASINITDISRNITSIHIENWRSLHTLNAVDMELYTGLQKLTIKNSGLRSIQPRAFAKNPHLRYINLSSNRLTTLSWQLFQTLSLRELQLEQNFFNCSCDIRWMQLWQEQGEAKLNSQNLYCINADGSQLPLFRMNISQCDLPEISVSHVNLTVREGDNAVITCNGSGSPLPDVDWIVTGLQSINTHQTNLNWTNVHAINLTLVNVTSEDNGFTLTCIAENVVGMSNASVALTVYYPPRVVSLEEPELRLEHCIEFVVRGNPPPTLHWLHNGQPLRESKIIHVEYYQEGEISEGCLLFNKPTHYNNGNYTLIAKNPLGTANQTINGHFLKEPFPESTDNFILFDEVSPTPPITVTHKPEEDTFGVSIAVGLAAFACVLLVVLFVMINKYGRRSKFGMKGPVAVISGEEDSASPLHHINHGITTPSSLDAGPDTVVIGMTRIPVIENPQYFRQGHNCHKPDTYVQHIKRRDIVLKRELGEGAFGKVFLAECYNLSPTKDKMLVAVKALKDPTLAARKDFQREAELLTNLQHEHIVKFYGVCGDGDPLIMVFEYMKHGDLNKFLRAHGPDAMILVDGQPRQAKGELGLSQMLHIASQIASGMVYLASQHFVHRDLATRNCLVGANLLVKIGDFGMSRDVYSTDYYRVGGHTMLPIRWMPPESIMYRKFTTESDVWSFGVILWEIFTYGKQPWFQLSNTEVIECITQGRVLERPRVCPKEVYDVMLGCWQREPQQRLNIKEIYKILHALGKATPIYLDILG

[10] = Drug metabolism study in rats, oral administration; details: rat; for CL / Vz: oral 5 mg/kg; for AUC(0-t) / Cmax / MRT last / Tmax / bioavailability / half-life: plasma, po, 5 mg/kg

T1 sequence (Q16620 32-822): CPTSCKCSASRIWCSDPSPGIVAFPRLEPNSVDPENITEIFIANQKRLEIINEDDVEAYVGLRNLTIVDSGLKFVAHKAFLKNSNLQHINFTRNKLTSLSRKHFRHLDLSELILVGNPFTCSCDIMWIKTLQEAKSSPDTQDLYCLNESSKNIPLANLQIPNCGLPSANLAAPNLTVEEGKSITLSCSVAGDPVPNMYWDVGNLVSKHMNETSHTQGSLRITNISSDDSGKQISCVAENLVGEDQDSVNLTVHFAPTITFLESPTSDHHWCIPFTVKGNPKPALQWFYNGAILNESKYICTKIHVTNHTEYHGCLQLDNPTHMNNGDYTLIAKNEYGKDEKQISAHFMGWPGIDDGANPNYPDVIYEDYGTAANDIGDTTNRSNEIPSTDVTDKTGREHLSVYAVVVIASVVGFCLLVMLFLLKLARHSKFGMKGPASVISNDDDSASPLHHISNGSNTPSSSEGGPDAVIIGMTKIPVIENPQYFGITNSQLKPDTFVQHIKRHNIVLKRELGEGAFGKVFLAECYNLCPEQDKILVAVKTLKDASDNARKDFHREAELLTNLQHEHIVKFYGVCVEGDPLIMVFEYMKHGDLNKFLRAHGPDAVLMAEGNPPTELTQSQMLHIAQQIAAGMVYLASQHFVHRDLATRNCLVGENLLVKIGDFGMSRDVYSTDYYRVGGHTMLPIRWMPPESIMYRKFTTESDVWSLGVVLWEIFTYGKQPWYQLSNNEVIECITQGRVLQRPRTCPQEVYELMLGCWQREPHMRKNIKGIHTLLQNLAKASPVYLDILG

SMILES | IC50 [1] | IC50 [2] | IC50 [3] | IC50 [5] | IC50 [6] | IC50 [7] | IC50 [8] | IC50 [9] | further results
C[C@@H](Nc1ccn2ncc(-c3cn[nH]c3)c2n1)c1cc(F)ccc1OCC(F)F [Compound 1, (R)-N-(1-(2-(2,2-difluoroethoxy)-5-fluorophenyl)ethyl)-3-(1H-pyrazol-4-yl) pyrazolo [1,5-a] pyrimidin-5-amine] | 1.9 nM | 1.9 nM | 0.76 nM | 1.76 nM | 0.22 nM | 0.84 nM | 0.45 nM | 3.1 nM | AUC(0-t) [4]: 434 ng·h/mL; Cmax [4]: 260 ng/mL; MRT last [4]: 3.62 h; Vd [4]: 16.9 L/kg; clearance [4]: 38.5 mL/min/kg; half-life [4]: 5.1 h; CL [10]: 126 mL/min/kg; Vz [10]: 48.49 L/kg; AUC(0-t) [10]: 650 ng·h/mL; Cmax [10]: 109 ng/mL; MRT last [10]: 5.69 h; Tmax [10]: 0.83 h; bioavailability [10]: 29.9%; half-life [10]: 4.44 h
C[C@@H](Nc1ccn2ncc(-c3cnn(C)c3)c2n1)c1cc(F)ccc1OC(F)F [Compound a4-8] | 1.5 nM | 2.4 nM | 1.1 nM | 3.2 nM | 0.4 nM | 1.2 nM | 2.9 nM | 3.5 nM | –
CC(Nc1ccn2ncc(-c3cnn(C(F)F)c3)c2n1)c1cc(F)ccc1OCCF (stereo not drawn) [Compound a11-18, 3-(1-(difluoromethyl)-1H-pyrazol-4-yl)-N-(1-(5-fluoro-2-(2-fluoroethoxy)phenyl)ethyl) pyrazolo [1,5-a] pyrimidin-5-amine] | – | 10.9 nM | 0.77 nM | 1 nM | 0.32 nM | 1.1 nM | 0.93 nM | – | –
C[C@@H](Nc1ccn2ncc(-c3cnn(C)c3)c2n1)c1cc(F)ccc1OCC(F)(F)F [Compound a23-31, (R)-N-(1-(5-fluoro-2-(2,2,2-trifluoroethoxy)phenyl)ethyl)-3-(1-methyl-1H-pyrazol-4-yl) pyrazolo [1,5-a] pyrimidin-5-amine] | 3 nM | 4 nM | 0.88 nM | 1.37 nM | 0.38 nM | 1.5 nM | 1.7 nM | 6.1 nM | –
C[C@@H](Nc1ccn2ncc(-c3cnn(CCO)c3)c2n1)c1cc(F)ccc1OCC(F)(F)F [Compound a24-32, (R)-2-(4-(5-((1-(5-fluoro-2-(2,2,2-trifluoroethoxy)phenyl)ethyl)amino)pyrazolo [1,5-a]pyrimidin-3-yl)-1H-pyrazol-1-yl) ethanol] | 1.4 nM | 3.1 nM | 0.75 nM | 1.39 nM | 0.44 nM | 0.94 nM | 1.1 nM | 2.9 nM | AUC(0-t) [4]: 343 ng·h/mL; Cmax [4]: 155 ng/mL; MRT last [4]: 4.29 h; Vd [4]: 22.8 L/kg; clearance [4]: 47.7 mL/min/kg; half-life [4]: 5.51 h; CL [10]: 105 mL/min/kg; Vz [10]: 28.2 L/kg; AUC(0-t) [10]: 816 ng·h/mL; Cmax [10]: 195 ng/mL; MRT last [10]: 3.8 h; Tmax [10]: 0.5 h; bioavailability [10]: 47.6%; half-life [10]: 3.2 h
C[C@@H](Nc1ccn2ncc(-c3cn[nH]c3)c2n1)c1cc(F)ccc1OCCF [Compound b7-16, (R)-N-(1-(5-fluoro-2-(2-fluoroethoxy)phenyl)ethyl)-3-(1H-pyrazol-4-yl) pyrazolo [1,5-a] pyrimidin-5-amine] | 2.5 nM | 2.5 nM | 0.77 nM | 1 nM | 0.32 nM | 1.1 nM | 0.93 nM | 3 nM | –
CC(Nc1ccn2ncc(-c3cn[nH]c3)c2n1)c1cc(F)cc(OCC(F)F)c1 (stereo not drawn) [Control Compound C, reference compound] | > 1000 nM | > 1000 nM | > 1000 nM | > 1000 nM | > 1000 nM | > 1000 nM | > 1000 nM | > 1000 nM | –
CC(Nc1ccn2ncc(-c3cn[nH]c3)c2n1)c1ccc(OCC(F)F)c(F)c1 (stereo not drawn) [Control Compound D, reference compound] | > 1000 nM | > 1000 nM | > 1000 nM | > 1000 nM | > 1000 nM | > 1000 nM | > 1000 nM | > 1000 nM | –
